# Measured values reported in patent US10927123B2, “Modulators of the beta-3 adrenergic receptor useful for the treatment or prevention of disorders related thereto” (Arena Pharmaceuticals, Inc., priority 2016, dated 2021).
# Biological target: Beta-3 Adrenergic Receptor (Homo sapiens (Human), UniProt P13945)
# Test: HTRF cAMP antagonist assay (IC50 determination)
# Format: cell-based
# Details: CHO-K1 cells stably expressing recombinant receptor; antagonism of isoproterenol at EC90; cAMP readout
# Method in brief: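 In this functional readout, recombinant CHO-K1 cells received compound, then isoproterenol at its EC90. After 1 h at room temperature, cAMP levels were determined by HTRF using an on-plate standard curve, and IC50 values were fitted.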
# Sequence of Beta-3 Adrenergic Receptor (P13945 whole entry, species assumed): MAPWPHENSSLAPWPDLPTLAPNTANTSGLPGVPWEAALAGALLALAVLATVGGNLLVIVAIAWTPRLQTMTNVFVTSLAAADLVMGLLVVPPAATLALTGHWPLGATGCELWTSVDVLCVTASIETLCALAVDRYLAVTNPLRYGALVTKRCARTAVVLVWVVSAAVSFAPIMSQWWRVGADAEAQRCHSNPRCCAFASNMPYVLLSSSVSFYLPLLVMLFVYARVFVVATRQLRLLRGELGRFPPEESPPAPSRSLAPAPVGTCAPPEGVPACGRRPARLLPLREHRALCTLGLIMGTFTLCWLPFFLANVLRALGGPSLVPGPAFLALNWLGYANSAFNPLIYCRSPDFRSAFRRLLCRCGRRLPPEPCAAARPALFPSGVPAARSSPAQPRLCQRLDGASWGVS
row,Compound,IC50 [nM]
1,"CCOc1ccc(S(=O)(=O)N2CCC3(CC2)C[C@H](NC[C@H](O)COc2cccc(S(=O)(=O)C4(CO)CC4)c2)CO3)cc1-c1ccc(CN)cc1 [Compound 237, (S)-1-((S)-8-(4′-(aminomethyl)-6-ethoxybiphenyl-3-ylsulfonyl)-1-oxa-8-azaspiro[4.5]decan-3-ylamino)-3-(3-(1-(hydroxymethyl)cyclopropylsulfonyl)phenoxy)propan-2-ol]",82
2,"COc1ccc(S(=O)(=O)N2CCC3(CC2)C[C@H](NC[C@H](O)COc2cccc(S(=O)(=O)C(F)(F)CO)c2)CO3)cc1-c1ccc(CN)cc1 [Compound 238, (S)-1-((S)-8-(4′-(aminomethyl)-6-methoxybiphenyl-3-ylsulfonyl)-1-oxa-8-azaspiro[4.5]decan-3-ylamino)-3-(3-(1,1-difluoro-2-hydroxyethylsulfonyl)phenoxy)propan-2-ol]",22.8
3,"CC(C)(C)NCc1ccc(-c2cccc(S(=O)(=O)N3CCC4(CC3)C[C@H](NC[C@H](O)COc3cccc(S(=O)(=O)C5(CO)CC5)c3)CO4)c2)cc1 [Compound 240, (S)-1-((S)-8-(4′-((tert-butylamino)methyl)biphenyl-3-ylsulfonyl)-1-oxa-8-azaspiro[4.5]decan-3-ylamino)-3-(3-(1-(hydroxymethyl)cyclopropylsulfonyl)phenoxy)propan-2-ol]",31.7
4,"O=S(=O)(c1cccc(-c2ccc(CNCC(F)(F)F)cc2)c1)N1CCC2(CC1)C[C@H](NC[C@H](O)COc1cccc(S(=O)(=O)C3(CO)CC3)c1)CO2 [Compound 242, (S)-1-(3-(1-(hydroxymethyl)cyclopropylsulfonyl)phenoxy)-3-((S)-8-(4′-((2,2,2-trifluoroethylamino)methyl)biphenyl-3-ylsulfonyl)-1-oxa-8-azaspiro[4.5]decan-3-ylamino)propan-2-ol]",35.5
5,"CCCNCc1ccc(-c2cccc(S(=O)(=O)N3CCC4(CC3)C[C@H](NC[C@H](O)COc3cccc(S(=O)(=O)C5(CO)CC5)c3)CO4)c2)cc1 [Compound 244, (S)-1-(3-(1-(hydroxymethyl)cyclopropylsulfonyl)phenoxy)-3-((S)-8-(4′-((propylamino)methyl)biphenyl-3-ylsulfonyl)-1-oxa-8-azaspiro[4.5]decan-3-ylamino)propan-2-ol]",27.8
6,"CCCCNCc1ccc(-c2cccc(S(=O)(=O)N3CCC4(CC3)C[C@H](NC[C@H](O)COc3cccc(S(=O)(=O)C5(CO)CC5)c3)CO4)c2)cc1 [Compound 245, (S)-1-((S)-8-(4′-((butylamino)methyl)biphenyl-3-ylsulfonyl)-1-oxa-8-azaspiro[4.5]decan-3-ylamino)-3-(3-(1-(hydroxymethyl)cyclopropylsulfonyl)phenoxy)propan-2-ol]",18.4
7,"O=S(=O)(c1cccc(-c2ccc(CN3CCOCC3)cc2)c1)N1CCC2(CC1)C[C@H](NC[C@H](O)COc1cccc(S(=O)(=O)C3(CO)CC3)c1)CO2 [Compound 246, (S)-1-(3-(1-(hydroxymethyl)cyclopropylsulfonyl)phenoxy)-3-((S)-8-(4′-(morpholinomethyl)biphenyl-3-ylsulfonyl)-1-oxa-8-azaspiro[4.5]decan-3-ylamino)propan-2-ol]",48.3
8,"O=S(=O)(CCO)c1cc(F)cc(OC[C@@H](O)CN[C@H]2COC3(CCN(S(=O)(=O)c4ccc5ncccc5c4)CC3)C2)c1 [Compound 249, (S)-1-(3-fluoro-5-(2-hydroxyethylsulfonyl)phenoxy)-3-((R)-8-(quinolin-6-ylsulfonyl)-1-oxa-8-azaspiro[4.5]decan-3-ylamino)propan-2-ol]",224
9,CCOc1ccc(-c2ccc(C3(N)CC3)cc2)cc1S(=O)(=O)N1CCC2(CC1)C[C@H](NC[C@H](O)COc1cccc(S(=O)(=O)C3CC3)c1)CO2 [Compound 252],29.3
10,"Cc1nc2c(cc1S(=O)(=O)N1CCC3(CC1)C[C@@H](NC[C@H](O)COc1cccc(S(=O)(=O)C4CC4)c1)CO3)N(C)CCO2 [Compound 259, (S)-1-(3-(cyclopropylsulfonyl)phenoxy)-3-((R)-8-(1,6-dimethyl-2,3-dihydro-1H-pyrido[2,3-b][1,4]oxazin-7-ylsulfonyl)-1-oxa-8-azaspiro[4.5]decan-3-ylamino)propan-2-ol]",158
11,"Cc1c(S(=O)(=O)N2CCC3(CC2)C[C@@H](NC[C@H](O)COc2cccc(S(=O)(=O)C4(CO)CC4)c2)CO3)cnc2c1N(C)CCO2 [Compound 260, (S)-1-((R)-8-(1,8-dimethyl-2,3-dihydro-1H-pyrido[2,3-b][1,4]oxazin-7-ylsulfonyl)-1-oxa-8-azaspiro[4.5]decan-3-ylamino)-3-(3-(1-(hydroxymethyl)cyclopropylsulfonyl)phenoxy)propan-2-ol]",178

# Next, values leading:
row,IC50 [nM],Compound
1,30.9,"COc1ccc(S(=O)(=O)N2CCC3(CC2)C[C@H](NC[C@H](O)COc2cccc(S(=O)(=O)C(F)(F)CO)c2)CO3)cc1-c1ccc(C2(N)CC2)cc1 [Compound 239, (S)-1-((S)-8-(4′-(1-aminocyclopropyl)-6-methoxybiphenyl-3-ylsulfonyl)-1-oxa-8-azaspiro[4.5]decan-3-ylamino)-3-(3-(1,1-difluoro-2-hydroxyethylsulfonyl)phenoxy)propan-2-ol]"
2,21.1,"CCC(C)(C)NCc1ccc(-c2cccc(S(=O)(=O)N3CCC4(CC3)C[C@H](NC[C@H](O)COc3cccc(S(=O)(=O)C5(CO)CC5)c3)CO4)c2)cc1 [Compound 241, (S)-1-(3-(1-(hydroxymethyl)cyclopropylsulfonyl)phenoxy)-3-((S)-8-(4′-((tert-pentylamino)methyl)biphenyl-3-ylsulfonyl)-1-oxa-8-azaspiro[4.5]decan-3-ylamino)propan-2-ol]"
3,35,"O=S(=O)(c1cccc(-c2ccc(CN3CCC3)cc2)c1)N1CCC2(CC1)C[C@H](NC[C@H](O)COc1cccc(S(=O)(=O)C3(CO)CC3)c1)CO2 [Compound 243, (S)-1-((S)-8-(4′-(azetidin-1-ylmethyl)biphenyl-3-ylsulfonyl)-1-oxa-8-azaspiro[4.5]decan-3-ylamino)-3-(3-(1-(hydroxymethyl)cyclopropylsulfonyl)phenoxy)propan-2-ol]"
4,33.5,"COCCNCc1ccc(-c2cccc(S(=O)(=O)N3CCC4(CC3)C[C@H](NC[C@H](O)COc3cccc(S(=O)(=O)C5(CO)CC5)c3)CO4)c2)cc1 [Compound 247, (S)-1-(3-(1-(hydroxymethyl)cyclopropylsulfonyl)phenoxy)-3-((S)-8-(4′-((2-methoxyethylamino)methyl)biphenyl-3-ylsulfonyl)-1-oxa-8-azaspiro[4.5]decan-3-ylamino)propan-2-ol]"
5,72.4,"O=S(=O)(CCO)c1cc(F)cc(OC[C@@H](O)CN[C@H]2COC3(CCN(S(=O)(=O)c4cnc5ccccc5c4)CC3)C2)c1 [Compound 248, (S)-1-(3-fluoro-5-(2-hydroxyethylsulfonyl)phenoxy)-3-((R)-8-(quinolin-3-ylsulfonyl)-1-oxa-8-azaspiro[4.5]decan-3-ylamino)propan-2-ol]"
6,336,"Cc1c(S(=O)(=O)N2CCC3(CC2)C[C@H](NC[C@H](O)COc2cccc(S(=O)(=O)C4(CO)CC4)c2)CO3)cnc2c1N(C)CCO2 [Compound 250, (S)-1-((S)-8-(1,8-dimethyl-2,3-dihydro-1H-pyrido[2,3-b][1,4]oxazin-7-ylsulfonyl)-1-oxa-8-azaspiro[4.5]decan-3-ylamino)-3-(3-(1-(hydroxymethyl)cyclopropylsulfonyl)phenoxy)propan-2-ol]"
7,51.6,CCOc1ccc(-c2ccc(C(C)(C)N)cc2)cc1S(=O)(=O)N1CCC2(CC1)CC(NC[C@H](O)COc1cccc(S(=O)(=O)C3(CO)CC3)c1)CO2 (stereo partly drawn) [Compound 251]
8,29.1,"COc1ccc(S(=O)(=O)N2CCC3(CC2)C[C@H](NC[C@H](O)COc2cccc(S(=O)(=O)C4CC4)c2)CO3)cc1-c1ccc(C2(N)CC2)cc1 [Compound 253, (S)-1-((S)-8-(4′-(1-aminocyclopropyl)-6-methoxybiphenyl-3-ylsulfonyl)-1-oxa-8-azaspiro[4.5]decan-3-ylamino)-3-(3-(cyclopropylsulfonyl)phenoxy)propan-2-ol]"
9,41.8,"CCOc1ccc(-c2ccc(C3(N)CC3)cc2)cc1S(=O)(=O)N1CCC2(CC1)C[C@@H](NC[C@H](O)COc1cccc(S(=O)(=O)C3CC3)c1)CO2 [Compound 254, (S)-1-((R)-8-(4′-(1-aminocyclopropyl)-4-ethoxybiphenyl-3-ylsulfonyl)-1-oxa-8-azaspiro[4.5]decan-3-ylamino)-3-(3-(cyclopropylsulfonyl)phenoxy)propan-2-ol]"
10,27.9,"COc1ccc(S(=O)(=O)N2CCC3(CC2)C[C@@H](NC[C@H](O)COc2cccc(S(=O)(=O)C4CC4)c2)CO3)cc1-c1ccc(C2(N)CC2)cc1 [Compound 255, (S)-1-((R)-8-(4′-(1-aminocyclopropyl)-6-methoxybiphenyl-3-ylsulfonyl)-1-oxa-8-azaspiro[4.5]decan-3-ylamino)-3-(3-(cyclopropylsulfonyl)phenoxy)propan-2-ol]"
11,32.6,"CCOc1ccc(-c2ccc(C3(N)CC3)cc2)cc1S(=O)(=O)N1CCC2(CC1)C[C@H](NC[C@H](O)COc1cccc(S(=O)(=O)CC)c1)CO2 [Compound 256, (S)-1-((S)-8-(4′-(1-aminocyclopropyl)-4-ethoxybiphenyl-3-ylsulfonyl)-1-oxa-8-azaspiro[4.5]decan-3-ylamino)-3-(3-(ethylsulfonyl)phenoxy)propan-2-ol]"
12,37.8,"CCOc1ccc(-c2ccc(C3(N)CC3)cc2)cc1S(=O)(=O)N1CCC2(CC1)C[C@@H](NC[C@H](O)COc1cccc(S(=O)(=O)CC)c1)CO2 [Compound 257, (S)-1-((R)-8-(4′-(1-aminocyclopropyl)-4-ethoxybiphenyl-3-ylsulfonyl)-1-oxa-8-azaspiro[4.5]decan-3-ylamino)-3-(3-(ethylsulfonyl)phenoxy)propan-2-ol]"
13,27.7,"CCS(=O)(=O)c1cccc(OC[C@@H](O)CN[C@H]2COC3(CCN(S(=O)(=O)c4ccc(OC)c(-c5ccc(C6(N)CC6)cc5)c4)CC3)C2)c1 [Compound 258, (S)-1-((R)-8-(4′-(1-aminocyclopropyl)-6-methoxybiphenyl-3-ylsulfonyl)-1-oxa-8-azaspiro[4.5]decan-3-ylamino)-3-(3-(ethylsulfonyl)phenoxy)propan-2-ol]"
